Legend:
[1] = tested on: polymerase and apyrase; test: Sequencing of C. jejuni shotgun libraries, nucleotide-specific CAFIE fit of raw reads; assay type: biochemical; conditions: average over 200 reads
Source text: In the present example, DNA Shotgun libraries of the genome C. jejuni were sequenced to calculate the nucleotide species concentrations optimized for polymerase and apyrase efficiencies. The second (TA) and the third (CG) columns of Table 4 show the relative percentage of T and A to C and G nucleotide species concentrations used in sequencing runs where a value for the 100% concentration may be based upon the calculated and normalized species relative ratio values from Table 3. For instance, using the figures from Table 3 100% of the G nucleotide species is 1.2 times greater the 100% of the C nucleotide species given the concentration ratio. Those of ordinary skill in the art will appreciate that C. jejuni is an AT rich genome generally meaning that there is a higher incidence of A and T nucleotide species in the genome composition than C and G nucleotide species. Thus, the relative percentages for TA and GC concentrations illustrated in FIG. 4 reflect that fact and typically would be different for a GC rich genome (i.e. the genome of T. thermophilus).
The average completion efficiency (i.e. to estimate incomplete extension) and carry forward values of each individual nucleotide species were inferred using a method described in detail below. The last column presents the average read lengths (RL) of the high quality reads obtained where increased read length correlates to an increased level of optimization of the combination of each nucleotide species concentration that is balanced for the species specific incorporation efficiency of polymerase to degradation efficiency of apyrase.
The average completion efficiencies and carry forward values of the individual nucleotide species were inferred using nucleotide-specific CAFIE (carry forward and incompletion extension) fit. For example, the sequencing process produces raw sequence reads typically processed by an embodiment of Image and Signal Processing software such as application 135. In the present example, application 135 maps (also referred to as an alignment by those of ordinary skill in the art) the raw sequence reads generated to a reference genome sequence associated with the samples sequenced, such as a consensus reference sequence of C. jejuni. As will be evident to those of ordinary skill, mapping/aligning the raw uncorrected sequence reads to a reference sequence can be employed to determine where CAFIE error occurs and determination of incidence of nucleotide species specific CAFIE error.
In the presently described example application 135 mapped 200 uncorrected sequence reads, represented as flowgrams, to the reference genome sequence and the first 100 iterations of the nucleotide flows considered for determination of optimal concentration of each of the nucleotide species by inferring the completion efficiencies and carry forward values. The detected signal strengths of each of the four nucleotide species were first normalized using the median 1-mer value for all nucleotide species. The term “1-mer value” as used herein generally refers to a value reflecting the degree of detected signal in response to an incorporation of a nucleotide species at a single sequence position which should be substantially the same for each of the nucleotide species. Typically this the 1-mer value is easiest to calculate from detected signals obtained at the beginning of a sequencing run of a template nucleic acid molecule because the key element in an adaptor includes a single representative of each nucleotide species in a key element at a known position (i.e. a TCAG key element) and thus it is expected that only a single nucleotide of each species is incorporated at each of the four sequence positions.
The completion efficiency and carry forward values illustrated in Table 4 can be inferred using a three-stage minimization process for each individual sequence read. […]

[2] = tested on: apyrase; test: Enzyme kinetics of apyrase across multiple nucleotides (Michaelis-Menten); assay type: biochemical; conditions: for Km: Michaelis constant of apyrase for the nucleotide species; for VApy-dNTP (estimated apyrase activity): Michaelis-Menten calculation, dTTP, α-thio-dATP, dCTP, dGTP at 40.3, 166.1, 16.3, 19.7 μM; for Vmax: maximum rate of apyrase for the nucleotide species; for Apyrase activity ratio: normalized to the value of dCTP
Source text: The nucleotide species specific steady-state apyrase concentration may be computed using what is referred to as the Michaelis-Menten kinetics to mathematically approximate the kinetic characteristics of an enzyme based upon the assumption that simple kinetic conditions exist. The Michaelis-Menten equation uses constant values that vary by nucleotide species and include the Michaelis constant KM and the maximum rate Vmax of enzyme activity in a reaction environment.
In the present example, apyrase is effectively exposed to only one type of nucleotide species at a given time due to the iterative nature of the sequencing reagent flows. The reaction rates between apyrase and each nucleotide species can be estimated using the following formula: […]
where [dNTP] is the concentration of dTTP, dATP, dCTP or dGTP.
Continuing with the present example, the nucleotide species concentrations used for the computation for dTTP, α-thio-dATP, dCTP and dGTP are 40.3, 166.1, 16.3 and 19.7 μM respectively in the reaction environment. It will be appreciated that the concentration value for α-thio-dATP is substantially higher than the concentrations of the other nucleotide species which is due to the modification that has an inhibitory effect upon the incorporation efficiency of a polymerase enzyme (i.e. thus a higher concentration improves the likelihood of polymerase incorporation) as well as an increased processing efficiency of the apyrase as illustrated in greater detail below. In some embodiments the more “natural” dATP species may be used in place of α-thio-dATP and may have a different value for nucleotide species concentration reflecting the higher efficiency of enzyme processing for that species. The estimated activities of apyrase from the Michaelis-Menten calculation towards the different nucleotide species are shown in the Table 2 below. It should again be noted that the calculated efficiency of apyrase to α-thio-dATP illustrated in Table 2 is substantially higher than for the other species and thus apyrase would be expected to process a higher concentration of α-thio-dATP in an efficient manner.

[3] = Run 1, relative concentration TA 120%, CG 140%
[4] = Run 2, relative concentration TA 140%, CG 140%
[5] = Run 3, relative concentration TA 120%, CG 160%

Compound	average carry forward [1, 3]	average completion efficiency [1, 3]	average carry forward [1, 4]	average completion efficiency [1, 4]	average carry forward [1, 5]	average completion efficiency [1, 5]	Km [2] [µM]	VApy-dNTP (estimated apyrase activity) [2] [μM/10 min]	Vmax [2] [μM/10 min]	Apyrase activity ratio [2]
Nc1ccn([C@H]2C[C@H](O)[C@@H](COP(=O)(O)OP(=O)(O)OP(=O)(O)O)O2)c(=O)n1 [dCTP]	0.0062	0.9988	0.0058	0.9986	0.0065	0.9991	76.5	31.7	250.0	1.0
Nc1nc2c(ncn2[C@H]2C[C@H](O)[C@@H](COP(=O)(O)OP(=O)(O)OP(=O)(O)O)O2)c(=O)[nH]1 [dGTP]	0.0048	0.9990	0.0075	0.9992	0.0057	0.9994	8.1	51.2	47.4	1.6
Cc1cn([C@H]2C[C@H](O)[C@@H](COP(=O)(O)OP(=O)(O)OP(=O)(O)O)O2)c(=O)[nH]c1=O [dTTP]	0.0006	0.9968	0.0013	0.9975	0.0008	0.9959	107	80.4	294.1	2.5
Nc1ncnc2c1ncn2[C@H]1C[C@H](O)[C@@H](COP(O)(=S)OP(=O)(O)OP(=O)(O)O)O1 (stereo partly drawn) [α-thio-dATP]	0.0035	0.9977	0.0033	0.9971	0.0043	0.9978	115	137.5	232.6	4.3
